In one data set the test system is macrophage. As to the kind of experiment: macrophage differentiation test. It is filed as cell-based. From the text: This is of importance in the prophylaxis of processes such as, for example, psoriasis or atopy or allergies or auto-immune disorders.
The nature of another data set: solubility in water. It is filed as physicochemical. The method, then:
If salts are sparingly soluble in water, they can be administered in the form of suspensions. […] For example, salts are preferably injected intravenously or intramuscularly in the form of an aqueous solution, such as physiological saline solution. The ampoules contain, for example, 2.5 mg of the fatty acid salt per 5 ml of solution. Ampoules containing, for example, 45 mg of fatty acid salt per milliliter of solution can also be prepared.

Structures can show the parent of a compound that is named as a salt.

Anti-inflammatory macrophage-stimulating potency and solubility in water data for 2 compounds are collected here from patent US6589520B1, “Treatment of psoriasis, allergies and auto-immune disorders of the skin with cis-6-hexadecenoic acid” (Beiersdorf AG, priority 1997, dated 2003).

Take `CCCCCCCCC/C=C\CCCCC(=O)O` [cis-6-hexadecenoic acid]: the anti-inflammatory macrophage-stimulating potency entry with macrophage was “showed an anti-inflammatory macrophage-stimulating potency”.

As for `CCCCCCC/C=C\CCCCCCCC(=O)O` [sodium salt of cis-9-heptadecenoic acid, cis-9-heptadecenoic acid], in “solubility in water”, the solubility in water entry was “particularly good solubility in water”.
